In patent publication US20200190062A1, “HETEROCYCLIC COMPOUND AND PHARMACEUTICAL COMPOSITION COMPRISING SAME” (BEYONDBIO INC., priority 2015, published 2020):
Where a name gives a salt, the structure may show the parent alone.

Key:
HCT116 = test: Inhibition of cancer cell proliferation (MTT); assay type: cell-based, human
SK-N-SH = test: Inhibition of cancer cell proliferation (MTT); assay type: cell-based, human
Outline: (§1)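 Plate 3000 cells/well and let them adhere for 16 h. Add compound (0.004, 0.013, 0.04, 0.12, 0.37, 1.1, 3.3, 10 uM; 0.08% DMSO) and culture for 72 h. Add MTT for 2 h, dissolve formazan in DMSO, read at 535 nm, and fit GI50.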

SH-SY5Y = test: Inhibition of cancer cell proliferation (MTT); assay type: cell-based, human
Outline: as §1

U-87MG = test: Inhibition of cancer cell proliferation (MTT); assay type: cell-based, human
Outline: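 Absorbance at 535 nm of DMSO-dissolved formazan (2 h MTT) gives viability versus 0.08% DMSO-treated cells, and GI50 is derived from eight concentrations between 0.004 and 10 uM. Exposure lasts 72 h at 37 °C, 5% CO2, using 3000 cells/well in 10% FBS medium ([…] for NCI-H23, otherwise DMEM).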

Tau protein = test: Inhibition of Tau phosphorylation (Western blot, pSer202) in SH-SY5Y cells; assay type: cell-based; details: 4 hrs
Experimental: SH-SY5Y cells expressing Tau protein were cultured in DMEM containing 10% FBS. 2.5×10^6 cells were placed in a 6-well plate and incubated at 5% CO2 and 37° C. for 16 hrs. The compounds obtained in the above Examples serially diluted ⅓ from 3 uM to 0.5 nM or the compounds in a concentration of 0.3, 0.1, 0.03, 0.01, 0.003 uM were treated for 4 hrs in DMEM containing 5% FBS. After 4 hrs, the culture solution was removed, washed with PBS, and cells were lysed by adding 100 ul of lysis buffer. The lysis buffer consisted of 50 mM Tris-HCl (pH 7.5), 150 mM NaCl, 5 mM EDT, 1 mM EGTA, 50 mM NaF, 1 mM PMSF, 1 mM Na3VO4, 2.5 mM DTT, 1% Triton X-100, and Protease inhibitor (Pierce). The lysed cells were centrifuged at 10,000 rpm and 4° C. for 10 min and the proteins in the supernatant were quantified. 25 ug of the proteins were electrophoresed on a SDS-PAGE gel and transferred to PVDF (Amersharm) membrane. The PVDF membrane was immersed in T-PBS containing 10% skim milk and shaken for 1 hr at room temperature. The primary antibody, Phosph-Tau[pSer202] (Abcam), diluted 1:1500 in T-PBS solution containing 5% skim milk was reacted with the membrane at room temperature for 2 hrs. The membrane was washed with T-PBS. The secondary antibody, Anti-rabbit IgG HRP, diluted 1:5000 was added to the membrane, reacted at room temperature for 1 hr, and washed.

CDK6/cyclinD3 = biological target: T1, CDK6/cyclinD3 (Homo sapiens, UniProt Q00534); test: Inhibition of CDK enzyme activity (ADP-Glo kinase assay); assay type: biochemical; details: 10 uM ATP, histone H1 substrate; read-out: IC50 CDK6/cyclinD
T1 construct: purchased Merck Millipore
T1 sequence (Q00534 whole entry): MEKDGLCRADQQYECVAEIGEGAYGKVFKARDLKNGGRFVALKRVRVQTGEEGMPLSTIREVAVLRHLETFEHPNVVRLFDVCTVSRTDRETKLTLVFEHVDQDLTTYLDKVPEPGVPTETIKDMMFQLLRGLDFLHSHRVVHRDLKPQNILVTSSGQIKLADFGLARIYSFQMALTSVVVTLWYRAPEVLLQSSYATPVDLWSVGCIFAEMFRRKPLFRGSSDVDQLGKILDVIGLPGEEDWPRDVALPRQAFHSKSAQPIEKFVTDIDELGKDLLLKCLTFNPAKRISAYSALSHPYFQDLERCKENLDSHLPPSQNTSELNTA
T1 sequence (P30281 whole entry partner): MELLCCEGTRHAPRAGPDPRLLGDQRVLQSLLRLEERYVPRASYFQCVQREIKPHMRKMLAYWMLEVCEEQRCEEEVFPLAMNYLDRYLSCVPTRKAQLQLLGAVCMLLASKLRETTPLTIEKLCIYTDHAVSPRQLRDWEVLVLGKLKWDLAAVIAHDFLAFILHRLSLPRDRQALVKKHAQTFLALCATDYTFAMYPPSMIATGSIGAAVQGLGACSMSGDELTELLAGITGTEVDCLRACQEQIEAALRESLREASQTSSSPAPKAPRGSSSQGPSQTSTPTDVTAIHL
Outline: (§2)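 Kinase reactions in 50 mM Tris-HCl pH 7.5 with MgCl2, EGTA, EDTA and DTT, at 10 µM ATP. CDK2/cyclinE and CDK5/p25 were used at 10 nM and CDK6/cyclinD3 at 50 nM with 0.125 mg/ml histone H1; CDK4/cyclinD1 was used at 20 nM with 0.125 mg/ml Rb protein. After 60 min at 30 °C, ADP was read by ADP-Glo luminescence and IC50 taken from % inhibition versus no-compound control.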

CDK1/cyclinB = biological target: T2, CDK1/cyclinB (Homo sapiens, UniProt P06493); test: as above; assay type: biochemical; details: 10 uM ATP, histone H1 substrate
T2 construct: purchased Merck Millipore
T2 sequence (P06493 whole entry): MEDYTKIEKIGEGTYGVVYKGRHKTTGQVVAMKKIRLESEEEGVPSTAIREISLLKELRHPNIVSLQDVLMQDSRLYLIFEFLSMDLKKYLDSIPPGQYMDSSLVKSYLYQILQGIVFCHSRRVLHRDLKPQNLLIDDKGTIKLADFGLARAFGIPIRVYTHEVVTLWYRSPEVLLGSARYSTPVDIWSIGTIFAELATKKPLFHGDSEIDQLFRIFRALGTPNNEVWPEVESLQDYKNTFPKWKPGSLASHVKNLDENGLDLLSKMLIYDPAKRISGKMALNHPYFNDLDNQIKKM
T2 sequence (P14635 whole entry partner): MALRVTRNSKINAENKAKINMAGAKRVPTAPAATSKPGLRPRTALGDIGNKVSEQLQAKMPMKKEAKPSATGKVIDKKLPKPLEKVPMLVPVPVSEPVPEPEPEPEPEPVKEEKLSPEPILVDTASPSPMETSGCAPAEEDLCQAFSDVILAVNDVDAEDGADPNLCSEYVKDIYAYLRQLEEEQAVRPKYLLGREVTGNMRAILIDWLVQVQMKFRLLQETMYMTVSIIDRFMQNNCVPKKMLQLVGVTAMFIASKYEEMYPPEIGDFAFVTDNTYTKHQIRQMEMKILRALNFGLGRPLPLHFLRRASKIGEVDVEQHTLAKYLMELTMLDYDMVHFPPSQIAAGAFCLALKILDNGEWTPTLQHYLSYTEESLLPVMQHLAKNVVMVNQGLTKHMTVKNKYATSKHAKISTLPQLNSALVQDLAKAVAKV

CDK5/p25 = biological target: T3, CDK5/p25 (Homo sapiens, UniProt Q00535); test: as above; assay type: biochemical; details: 10 uM ATP, histone H1 substrate
T3 construct: purchased Merck Millipore
T3 sequence (Q00535 whole entry): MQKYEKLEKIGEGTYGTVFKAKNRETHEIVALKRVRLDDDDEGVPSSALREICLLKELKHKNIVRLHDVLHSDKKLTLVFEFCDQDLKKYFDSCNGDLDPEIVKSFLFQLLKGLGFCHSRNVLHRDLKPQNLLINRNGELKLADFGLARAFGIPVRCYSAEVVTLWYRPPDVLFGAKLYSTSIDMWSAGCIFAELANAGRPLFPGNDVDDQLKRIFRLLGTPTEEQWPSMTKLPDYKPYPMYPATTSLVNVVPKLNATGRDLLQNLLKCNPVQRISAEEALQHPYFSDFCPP
T3 sequence (Q15078 99-307 partner limits assumed): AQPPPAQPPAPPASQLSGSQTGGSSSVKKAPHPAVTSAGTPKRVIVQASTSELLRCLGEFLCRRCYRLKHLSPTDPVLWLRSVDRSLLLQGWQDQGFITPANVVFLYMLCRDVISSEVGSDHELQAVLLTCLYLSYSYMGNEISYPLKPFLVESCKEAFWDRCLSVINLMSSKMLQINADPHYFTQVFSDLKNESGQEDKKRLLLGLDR
Outline: as §2

SMILES | GI50 (SK-N-SH; Homo sapiens, SK-N-SH, 72 h) | GI50 (SH-SY5Y; Homo sapiens, SH-SY5Y, 72 h) | GI50 (U-87MG; Homo sapiens, U-87 MG, 72 h) | Phosphorylation (%) of Tau (Tau protein; 0.012 uM) | Phosphorylation (%) of Tau (Tau protein; 0.037 uM) | Phosphorylation (%) of Tau (Tau protein; 0.11 uM) | Phosphorylation (%) of Tau (Tau protein; 0.33 uM) | Phosphorylation (%) of Tau (Tau protein; 1 uM) | Phosphorylation (%) of Tau (Tau protein; 3 uM) | IC50 (CDK6/cyclinD3) | IC50 (CDK1/cyclinB) | IC50 (CDK5/p25) | GI50 (HCT116; 72 hrs) | other results
Nc1cc(-c2ccc(O)c(-c3ccnc(N)n3)n2)ccn1 [Example 10, 2′-amino-6-(2-aminopyrimidin-4-yl)-[2,4′-bipyridin]-5-ol] | 240 nM | 110 nM | 380 nM | 101% | 84% | 60% | 39% | 11% | 13% | > 200 nM | 3.6 nM | 1.2 nM | – | GI50 (HCT116; Homo sapiens, HCT-116, 72 h): 260 nM
Nc1nccc(-c2ccc(O)c(-c3ccnc(N)n3)n2)n1 [Example 61, 2,6-bis(2-aminopyrimidin-4-yl)pyridin-3-ol 3hydrochloride] | – | – | – | – | – | – | – | – | – | – | 0.4 nM | 0.9 nM | 90 nM | –
Nc1nccc(-c2nc(-c3ccnc(N)c3F)ccc2O)n1 [Example 8] | – | – | – | 0% | 0% | 0% | – | – | – | 47 nM | 2.1 nM | 0.22 nM | 10 nM | GI50 (SK-N-SH; 72 hrs): 10 nM; GI50 (SH-SY5Y; 72 hrs): 10 nM; GI50 (U-87MG; 72 hrs): 60 nM; Phosphorylation (%) of Tau (Tau protein; 0.0005 uM): 40%; Phosphorylation (%) of Tau (Tau protein; 0.0014 uM): 43%; Phosphorylation (%) of Tau (Tau protein; 0.0041 uM): 23%
Nc1nccc(-c2ccc(O)c(-c3ccnc(N)n3)n2)n1 [Example 1, 2,6-bis(2-aminopyrimidin-4-yl)pyridin-3-ol] | 280 nM | 150 nM | 850 nM | 88% | 92% | 51% | 28% | 30% | 25% | > 200 nM | 1.5 nM | 2.4 nM | 150 nM | –
Cc1cc(-c2nc(-c3ccnc(N)c3F)ccc2O)nc(N)n1 [Example 71, 2′-amino-6-(2-amino-6-methylpyrimidin-4-yl)-3′-fluoro-[2,4′-bipyridin]-5-ol 3hydrochloride] | – | – | 10 nM | – | – | – | – | – | – | 29.8 nM | 0.2 nM | 0.3 nM | 10 nM | Phosphorylation (%) of Tau (Tau protein; 0.003 uM): 110%; Phosphorylation (%) of Tau (Tau protein; 0.01 uM): 101%; Phosphorylation (%) of Tau (Tau protein; 0.03 uM): 35%; Phosphorylation (%) of Tau (Tau protein; 0.1 uM): 26%
